Data from patent US8362000B2, “Azetidinyl diamides as monoacylglycerol lipase inhibitors” (Janssen Pharmaceutica NV, priority 2009, dated 2013).
Where a chain is given by its changes, count along the chain named. Read-outs that look alike come from different tables or passages of the source.

Legend:
MGL = biological target: T1, MGL (Rattus norvegicus, UniProt Q8R431); experiment: 2-AG accumulation assay in rat brain homogenate; format: biochemical; details: rat brain homogenate, 2-AG accumulation as percent of vehicle; for 2-AG accumulation, % of vehicle control at 10 µM: compound 10 μM, read-out: Rat Brain 2AG % VehCntrl (%) @ 10 μM; for 2-AG accumulation, % of vehicle control at 1 µM: compound 1 μM, read-out: Rat Brain 2AG % VehCntrl (%) @ 1 μM
T1 construct: one g rat brain was homogenized using a Polytron homogenizer; from tissue; host or cells: rat brain homogenate
T1 sequence (Q8R431 1-303): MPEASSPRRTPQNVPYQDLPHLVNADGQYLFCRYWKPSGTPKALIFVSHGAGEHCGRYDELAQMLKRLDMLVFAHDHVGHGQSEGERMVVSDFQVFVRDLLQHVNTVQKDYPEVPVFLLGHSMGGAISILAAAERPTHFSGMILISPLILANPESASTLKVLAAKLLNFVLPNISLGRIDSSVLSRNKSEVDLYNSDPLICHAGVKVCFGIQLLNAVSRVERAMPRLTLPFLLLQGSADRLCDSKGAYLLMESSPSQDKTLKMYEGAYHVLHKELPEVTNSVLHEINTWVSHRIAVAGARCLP

[1] = biological target: T2, purified wild type MGL (wt-MGLL 6H-11-313) (Homo sapiens, UniProt Q99685)
T2 sequence (Q99685 1-303): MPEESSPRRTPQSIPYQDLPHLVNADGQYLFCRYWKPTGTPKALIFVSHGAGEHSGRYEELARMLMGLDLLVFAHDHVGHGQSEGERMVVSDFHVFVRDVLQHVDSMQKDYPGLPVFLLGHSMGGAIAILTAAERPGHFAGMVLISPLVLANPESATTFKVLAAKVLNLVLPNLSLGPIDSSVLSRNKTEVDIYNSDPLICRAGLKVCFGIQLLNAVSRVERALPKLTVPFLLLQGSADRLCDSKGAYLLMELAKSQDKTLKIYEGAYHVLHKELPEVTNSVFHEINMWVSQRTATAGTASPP

mutant MGL = biological target: T3, mutant MGL (Homo sapiens, UniProt Q99685, L169S/L176S); experiment: MGL ThermoFluor assay - mutant; format: binding; details: read-out: MGL mutant ThermoFluor Kd
T3 sequence (Q99685 1-303 L169S/L176S): T2 sequence (Q99685 1-303) with L169S, L176S

[2] = ThermoFluor concentration-response
[3] = ThermoFluor thermal stability binding assay

Row | 2-AG accumulation, % of vehicle control at 10 µM (MGL) | IC50 [1] | 2-AG accumulation, % of vehicle control at 1 µM (MGL) | Kd (mutant MGL; [2]) | Kd (mutant MGL; [3]) | SMILES
1 |  | 24 nM | 751% |  |  | O=C(c1cccc(C(F)(F)F)c1)N1CCc2cc(C(=O)N3CC(N4CCN(C(=O)c5nccs5)CC4)C3)ccc2C1 [Cpd 679, 6-({3-[4-(1,3-Thiazol-2-ylcarbonyl)piperazin-1-yl]azetidin-1-yl}carbonyl)-2-{[3-(trifluoromethyl)phenyl]carbonyl}-1,2,3,4-tetrahydroisoquinoline]
2 |  | < 5 nM | 823% |  |  | O=C(c1ccc2c(c1)Sc1ccccc1O2)N1CC(N2CCN(C(=O)c3nccs3)CC2)C1 [Cpd 886]
3 |  | 45 nM | 136% |  |  | O=C(c1ccc(Oc2cccc(C(F)(F)F)c2)nc1)N1CC(N2CCN(C(=O)c3cscn3)CC2)C1 [Cpd 689]
4 |  | 13 nM | 698% |  |  | Cc1c(C(=O)N2CC(N3CCN(C(=O)c4nccs4)CC3)C2)nn(-c2ccc(Cl)cc2Cl)c1-c1ccc(Cl)cc1 [Cpd 1103]
5 |  | 1610 nM | 86% |  |  | O=C(c1ccccc1)N1CCN(C2CN(C(=O)c3ccc(Oc4cc(C(F)(F)F)ccn4)cc3)C2)CC1 [Cpd 518]
6 |  | < 5 nM | 940% |  |  | O=C(c1ccc(N2CCCCCC2)cc1)N1CC(N2CCN(C(=O)c3nccs3)CC2)C1 [Cpd 888]
7 |  | < 5 nM | 363% |  |  | O=C(c1ccc(S(=O)(=O)c2cccc(Cl)c2)cc1)N1CC(N2CCN(C(=O)c3nccs3)CC2)C1 [Cpd 876]
8 |  | < 5 nM | 639% |  |  | O=C(c1ccc(Cc2cccc(C(F)(F)F)c2)cc1)N1CC(N2CCN(C(=O)c3cscn3)CC2)C1 [Cpd 998]
9 |  | 33 nM | 344% |  |  | Cn1cc(-c2ccc(C(F)(F)F)cc2)c2ccc(C(=O)N3CC(N4CCN(C(=O)c5cscn5)CC4)C3)cc21 [Cpd 1148]
10 |  |  | 892% | 3 nM |  | O=C(c1ccc2c(ccn2-c2ncc(F)cn2)c1)N1CC(N2CCN(C(=O)c3nccs3)CC2)C1 [Cpd 1147, 1-(5-Fluoropyrimidin-2-yl)-5-({3-[4-(1,3-thiazol-2-ylcarbonyl)piperazin-1-yl]azetidin-1-yl}carbonyl)-1H-indole]
11 | 762% |  |  |  | 1.67 nM | O=C(c1ccc(OCc2cccc(Cl)c2)c(Cl)c1)N1CC(N2CCN(C(=O)c3nccs3)CC2)C1 [Cpd 401, 1-[1-({3-Chloro-4-[(3-chlorobenzyl)oxy]phenyl}carbon-yl)azetidin-3-yl]-4-(1,3-thiazol-2-ylcarbonyl)piperazine]
12 |  |  | 186% |  | 144 nM | CS(=O)(=O)N1CCCc2cc(C(=O)N3CC(N4CCN(C(=O)c5nccs5)CC4)C3)ccc21 [Cpd 361]
13 |  |  | 515% | 69 nM |  | O=C(c1ccc(CNc2cccc(Cl)c2)cc1)N1CC(N2CCN(C(=O)c3cscn3)CC2)C1 [Cpd 969]
14 |  |  | 126% | 146 nM |  | O=C(/C=C/c1ccc(SC(F)(F)F)cc1)N1CC(N2CCN(C(=O)c3cscn3)CC2)C1 [Cpd 648]
15 |  |  | 119% | 44 nM |  | O=C(c1cscn1)N1CC(N2CCN(C(=O)c3cc4cc(C(F)(F)F)ccc4s3)C(c3ccccc3)C2)C1 (stereo not shown) [Cpd 905, 2-Phenyl-4-[1-(1,3-thiazol-4-ylcarbonyl)azetidin-3-yl]-1-{[5-(trifluoromethyl)-1-benzothiophen-2-yl]carbonyl}piperazine]
16 |  |  | 493% |  | 25 nM | Cc1oc(-c2ccccc2)cc1C(=O)N1CC(N2CCN(C(=O)c3nccs3)CC2)C1 [Cpd 1378]
17 |  |  | 432% |  | 35.3 nM | O=C(c1ccc2c(c1)CCCN2S(=O)(=O)c1ccccc1)N1CC(N2CCN(C(=O)c3nccs3)CC2)C1 [Cpd 366, 1-(Phenylsulfonyl)-6-({3-[4-(1,3-thiazol-2-ylcarbonyl)piperazin-1-yl]azetidin-1-yl}carbonyl)-1,2,3,4-tetrahydroquinoline]

Continued, molecule first:

Row | SMILES | 2-AG accumulation, % of vehicle control at 10 µM (MGL) | IC50 [1] | 2-AG accumulation, % of vehicle control at 1 µM (MGL) | Kd (mutant MGL; [2]) | Kd (mutant MGL; [3])
18 | CS(=O)(=O)Nc1cccc(-c2ccc(C(=O)N3CC(N4CCN(C(=O)c5nccs5)CC4)C3)cc2)c1 [Cpd 219, N-[4′-({3-[4-(1,3-Thiazol-2-ylcarbonyl)piperazin-1-yl]azetidin-1-yl}carbonyl)biphenyl-3-yl]methanesulfonamide] | 851% | 32 nM |  |  | 
19 | O=C(c1ccccc1)N1CCN(C2CN(C(=O)c3ccc(-c4ccccc4OC(F)(F)F)cc3)C2)CC1 [Cpd 196, 1-(Phenylcarbonyl)-4-(1-{[2′-(trifluoromethoxy)biphenyl-4-yl]carbonyl}azetidin-3-yl)piperazine] | 516% | 216 nM |  |  | 
20 | O=C(c1cccc(-c2ccccc2C(F)(F)F)c1)N1CC(N2CCN(C(=O)c3nccs3)CC2)C1 [Cpd 148, 1-(1,3-Thiazol-2-ylcarbonyl)-4-(1-{[2′-(trifluoromethyl)biphenyl-3-yl]carbonyl}azetidin-3-yl)piperazine] | 744% | < 5 nM |  |  | 
21 | Cc1nc(-c2ccccc2)sc1C(=O)N1CC(N2CCN(C(=O)c3nccs3)CC2)C1 [Cpd 133, 1-{1-[(4-Methyl-2-phenyl-1,3-thiazol-5-yl)-carbonyl]azetidin-3-3yl}-4-(1,3-thiazol-2-ylcarbonyl)piperazine] | 623% | 67.3 nM |  |  | 
22 | O=C(c1ccc(-c2ccc(F)c(Cl)c2)cc1)N1CC(N2CCN(C(=O)c3cscn3)CC2)C1 [Cpd 227, 1-{1-[(3′-Chloro-4′-fluorobiphenyl-4-yl)carbonyl]azetidin-3-yl}-4-(1,3-thiazol-4-ylcarbonyl)piperazine] | 938% | 7 nM |  |  | 
23 | CS(=O)(=O)c1cccc(-c2ccc(C(=O)N3CC(N4CCN(C(=O)c5nccs5)CC4)C3)cc2)c1 [Cpd 208, 1-(1-{[3′-(Methylsulfonyl)biphenyl-4-yl]carbonyl}azetidin-3-yl)-4-(1,3-thiazol-2-ylcarbonyl)piperazine] | 324% | 92 nM | 480% |  | 
24 | O=C(c1ccc(-c2ccc(Cl)c(C(F)(F)F)c2)cc1)N1CC(N2CCN(C(=O)c3nccs3)CC2)C1 [Cpd 212, 1-(1-{[4′-Chloro-3′-(trifluoromethyl)biphenyl-4-yl]carbonyl}azetidin-3-yl)-4-(1,3-thiazol-2-ylcarbonyl)piperazine] | 831% | < 5 nM |  |  | 
25 | O=C(c1nccs1)N1CC(N2CCN(C(=O)c3ccc(-c4ccccc4)cc3)C(c3ccccc3)C2)C1 (stereo not shown) [Cpd 43, 1-(Biphenyl-4-ylcarbonyl)-2-phenyl-4-[1-(1,3-thiazol-2-ylcarbonyl)azetidin-3-yl]piperazine] | 215% | 1260 nM |  |  | 
26 | O=C(c1ccc(-c2ccc(Cl)cc2)cc1)N1CC(N2CCN(C(=O)c3nccs3)CC2)C1 [Cpd 163, 1-{1-[(4′-Chlorobiphenyl-4-yl)carbonyl]azetidin-3-yl}-4-(1,3-thiazol-2-ylcarbonyl)piperazine] | 923% |  |  | 3.45 nM | 
27 | Cc1cc(C(=O)N2CC(N3CCN(C(=O)c4ccccc4)CC3)C2)ccc1-c1cccc(C(F)(F)F)c1 [Cpd 243, 1-(1-{[2-Methyl-3′-(trifluoromethyl)biphenyl-4-yl]carbonyl}azetidin-3-yl)-4-(phenylcarbonyl)piperazine] |  |  | 120% |  | 16.7 nM
28 | O=C(c1ccc(-c2ccccc2)cc1)N1CC(N2CCN(C(=O)c3ccc(Br)o3)CC2)C1 [Cpd 12, 1-[1-(Biphenyl-4-ylcarbonyl)azetidin-3-yl]-4-[(5-bromofuran-2-yl)carbonyl]piperazine] | 448% |  |  | 14.3 nM | 
29 | O=C(c1ccc(C2CCCCC2)cc1)N1CC(N2CCN(C(=O)c3ccco3)CC2)C1 [Cpd 2, 1-{1-[(4-Cyclohexylphenyl)carbonyl]azetidin-3-yl}-4-(furan-2-ylcarbonyl)piperazine] | 911% |  |  | 0.49 nM | 
30 | O=C(c1ccccc1)N1CCN(C2CN(C(=O)c3ccc(-c4ccc(Br)cc4)cc3)C2)CC1 [Cpd 83, 1-{1-[(4′-Bromobiphenyl-4-yl)carbonyl]azetidin-3-yl}-4-(phenylcarbonyl)piperazine] |  |  | 105% | 111 nM | 
